What was measured:
HIV = details: cited from earlier work; for EC50: read-out: HIV inhibitory activity EC50
[1] = within the tested dose range; read-out: cytotoxicity CC50; cited from earlier work
[2] = stability of crystal forms on storage, drying or heating, checked by XRPD; format: physicochemical
Procedure: The type XVI crystal was heated to 55° C. in a nitrogen atmosphere and held for 2 to 24 h.
The type XVI crystal and the type XVII crystal were left at 60±5° C. for 5 days, respectively.
The type XVII crystal was left for 5 days under the conditions of 25° C. and 92.5±5% humidity.
The type XVIII crystal was heated to 150° C. or left for 24 h under the conditions of 25° C. and 92.5±5% humidity.
The crystal suffered from a weight loss of 13.2% when heated to 110° C., and a weight loss of 3.5% when further heated to 200° C. Three endothermic signals occurred in the range of 80° C. to 140° C. The type I crystal was heated to 55° C. under nitrogen protection and then cooled to room temperature. The sample was removed and exposed to air to test XRPD.
As the type II crystal was unstable and had been transformed after dying for a short period of time, no further studies were carried out on the type II crystal.
Under the conditions of nitrogen protection, the type IV crystal was heated to 141° C. and then tested for XRPD.
The type V crystal was subjected to the variable-temperature XRPD test.
The type VI crystal was heated to 160° C. under the nitrogen protection.
Under the nitrogen protection, the type VII crystal was heated to 130° C. and then cooled to room temperature. The sample was removed and exposed to the air to test XRPD.
Under the nitrogen protection, the type VIII crystal was heated to 160° C. and then cooled to room temperature. The sample was removed and exposed to the air to test XRPD.
The crystal was heated to 95° C. under nitrogen protection and then cooled to room temperature. The sample was removed and exposed to the air to test XRPD. […] The crystal was heated to 160° C. under the same conditions of nitrogen protection and then cooled to room temperature. The sample was removed and exposed to the air to test XRPD.
The type X crystal was subjected to the variable-temperature XRPD test.
The samples open dried at room temperature were characterized by TGA/DSC.
Meanwhile, the type XIII crystal was coated to test XRPD, and new type XIV crystal could be observed.

[3] = LC-MS detection of chemical changes in the crystal; format: physicochemical; details: obtained from type XVI crystal left at 60° C. for 5 days
Procedure: The type XVI crystal was left at 60° C. for 5 days to obtain a type XVIII crystal, which was an anhydrous crystal.

[4] = heated to 160° C. under nitrogen protection

Question: Which results are given for C#C[C@]1(CO)O[C@@H](n2cnc3c(N)nc(F)nc32)C[C@@H]1O [Compound 1]?
Answer: EC50 (HIV): 0.05 nM; increase of HIV inhibitory activity by introduction of 2-fluorine (HIV; versus 4′-ethynyl-2′-deoxyadenosine (EdA)): 2200 times

Question: With C#C[C@]1(CO)O[C@@H](n2cnc3c(N)ncnc32)C[C@@H]1O [EdA, 4′-ethynyl-2′-deoxyadenosine] as the molecule, how does the EC50 (HIV) read?
Answer: 11 nM

Question: With C#C[C@]1(CO)O[C@@H](n2cnc3c(N)nc(F)nc32)[C@@H](F)[C@@H]1O [compound (3), (2R,3R,4S,5R)-5-(6-amino-2-fluoro-9H-purin-9-yl)-2-ethynyl-4-fluoro-2-(hydroxymethyl)tetrahydrofuran-3-ol] as the molecule, how does the CC50 [1] read?
Answer: > 8000 nM

Question: What about the EC50 (HIV) of the same molecule?
Answer: 0.9 nM

Question: Which results are given for C#C[C@]1(CO)O[C@@H](n2cnc3c(N)nc(F)nc32)[C@@H](F)[C@@H]1O [type I crystal]?
Answer: XRPD after heating ([2]; heated to 55° C. under nitrogen, cooled to room temperature, exposed to air): diffraction peak intensity of the sample was somewhat decreased; XRPD after heating ([2]; heated to 100° C. under nitrogen protection): transformed into an amorphous crystal

Question: Which “crystal form after vacuum drying” value ([2]; vacuum drying at room temperature for half an hour) does the source give for C#C[C@]1(CO)O[C@@H](n2cnc3c(N)nc(F)nc32)[C@@H](F)[C@@H]1O [type II crystal] here?
Answer: transformed into a type III crystal

Question: Which “stability by TGA” value ([2]; 120° C.) does the source give for C#C[C@]1(CO)O[C@@H](n2cnc3c(N)nc(F)nc32)[C@@H](F)[C@@H]1O [type IV crystal] here?
Answer: unstable

Question: And the “XRPD of dried crystal after closed storage” value ([2]; dried crystal left closed at room temperature for about 5 days)?
Answer: increased relative intensity of the diffraction peaks and increased number of diffraction peaks

Question: What about the XRPD after heating ([2]; heated to 141° C. under nitrogen protection) of the same molecule?
Answer: transformed into a stable type III crystal

Question: And the “XRPD after vacuum drying” value ([2]; vacuum dried at room temperature for 15 min)?
Answer: decreased relative intensity of the diffraction peaks

Question: Which results are given for C#C[C@]1(CO)O[C@@H](n2cnc3c(N)nc(F)nc32)[C@@H](F)[C@@H]1O [type IX crystal]?
Answer: XRPD after heating ([2]; heated to 95° C. under nitrogen, cooled to room temperature, exposed to air): degree of crystallinity was further decreased; XRPD after heating [2, 4]: crystal form had been transformed; crystallinity after closed storage ([2]; left closed at room temperature for about 3 days): reduced degree of crystallinity

Question: Which “variable-temperature XRPD” value ([2]; further heated to 154° C.) does the source give for C#C[C@]1(CO)O[C@@H](n2cnc3c(N)nc(F)nc32)[C@@H](F)[C@@H]1O [type V crystal] here?
Answer: transformed into another crystal

Question: And the “variable-temperature XRPD” value ([2]; heated to 90° C. and 130° C. under nitrogen)?
Answer: substantially transformed into an amorphous crystal

Question: And the “variable-temperature XRPD, nitrogen purge” value ([2]; purged with nitrogen for about 20 min)?
Answer: significant decrease in degree of crystallinity

Question: Which XRPD after heating [2, 4] does the source give for C#C[C@]1(CO)O[C@@H](n2cnc3c(N)nc(F)nc32)[C@@H](F)[C@@H]1O [type VI crystal] here?
Answer: crystal form was transformed

Question: For C#C[C@]1(CO)O[C@@H](n2cnc3c(N)nc(F)nc32)[C@@H](F)[C@@H]1O [type VII crystal], which XRPD after heating ([2]; heated to 130° C. under nitrogen, cooled to room temperature, exposed to air) is on record?
Answer: crystal form was transformed

Question: For C#C[C@]1(CO)O[C@@H](n2cnc3c(N)nc(F)nc32)[C@@H](F)[C@@H]1O [type X crystal], which “variable-temperature XRPD” value ([2]; further heated to 130° C.) is on record?
Answer: diffraction peak intensity was significantly reduced

Question: And the “variable-temperature XRPD” value ([2]; further heated to 145° C.)?
Answer: crystal form was transformed

Question: What about the “variable-temperature XRPD” value ([2]; heated to 120° C. while purging with nitrogen) of the same molecule?
Answer: position of the diffraction peak shifted

Question: Which “crystal form after vacuum drying” value ([2]; vacuum drying at room temperature for 10 min) does the source give for C#C[C@]1(CO)O[C@@H](n2cnc3c(N)nc(F)nc32)[C@@H](F)[C@@H]1O [type XII crystal] here?
Answer: transformed into an amorphous crystal

Question: For C#C[C@]1(CO)O[C@@H](n2cnc3c(N)nc(F)nc32)[C@@H](F)[C@@H]1O [type XIII crystal], which “crystal form in solvent environment” value ([2]; left in a solvent environment at room temperature) is on record?
Answer: transformed into the type XIV crystal

Question: And the “crystal form after open drying” value ([2]; open dried at room temperature for about 2 h)?
Answer: crystal form was transformed

Question: With C#C[C@]1(CO)O[C@@H](n2cnc3c(N)nc(F)nc32)[C@@H](F)[C@@H]1O [type XIV crystal] as the molecule, how does the “crystal form after removal from solvent” value ([2]; removed from the solvent environment) read?
Answer: transformed into the type XIII crystal

Question: With C#C[C@]1(CO)O[C@@H](n2cnc3c(N)nc(F)nc32)[C@@H](F)[C@@H]1O [type XV crystal] as the molecule, how does the “crystal form after heating” value ([2]; heated to 120° C.) read?
Answer: crystal form was transformed

Question: Which “crystal form by XRPD after heating” value ([2]; heated to 55° C. in nitrogen atmosphere, held 2 to 24 h) does the source give for C#C[C@]1(CO)O[C@@H](n2cnc3c(N)nc(F)nc32)[C@@H](F)[C@@H]1O [type XVI crystal] here?
Answer: type XVII crystal was also obtained

Question: What about the “crystal form by XRPD after storage” value ([2]; left at 60±5° C. for 5 days) of the same molecule?
Answer: transformed into the type XVIII crystals

Question: And the “crystal form after vacuum drying” value ([2]; vacuum drying at room temperature for 24 h)?
Answer: transformed into a monohydrate crystal form—type XVII crystal

Question: Which “crystal form after drying” value ([2]; dried at 90° C. for 1 to 24 h) does the source give for C#C[C@]1(CO)O[C@@H](n2cnc3c(N)nc(F)nc32)[C@@H](F)[C@@H]1O [type XVII crystal] here?
Answer: obtain the type XVIII crystal

Question: What about the “crystal form by XRPD after storage” value ([2]; left for 5 days at 25° C. and 92.5±5% humidity) of the same molecule?
Answer: type XVI crystal was obtained

Question: Which results are given for C#C[C@]1(CO)O[C@@H](n2cnc3c(N)nc(F)nc32)[C@@H](F)[C@@H]1O [type XVIII crystal]?
Answer: chemical changes by LC-MS [3]: did not undergo chemical changes; crystal form by XRPD after heating ([2]; heated to 150° C.): crystal form did not change; crystal form by XRPD after storage ([2]; left for 24 h at 25° C. and 92.5±5% humidity): crystal form did not change
